Experimental data from ChEMBL document CHEMBL1129021, “Synthesis and biological evaluation of the L-enantiomer of 2-deoxy-5-ethyl-4-thiouridine” (Bioorg Med Chem Lett, 1996).

Columns and labels:
Format in all cases: functional, organism-based
Human betaherpesvirus 5 = experiment: Compound was evaluated for the antiviral activity against human cytomegalo virus(HCMV)
Human alphaherpesvirus 3 = experiment: Compound was evaluated for the antiviral activity against varicella zoster virus(VZV)
Human alphaherpesvirus 2 = experiment: Compound was evaluated for the antiviral activity against herpes simplex virus-2(HSV-2)
[1] = test system: Human immunodeficiency virus 1; experiment: Compound was evaluated for the antiviral activity against human immunodeficiency virus-1(HIV-1)

SMILES	IC50 (Human betaherpesvirus 5)	IC50 (Human alphaherpesvirus 3)	IC50 (Human alphaherpesvirus 2)	IC50 [1]
CCc1cn([C@@H]2C[C@@H](O)[C@H](CO)S2)c(=O)[nH]c1=O	> 100 µM	> 40 µM	> 50 µM	> 50 µM
CCc1cn([C@H]2C[C@H](O)[C@@H](CO)S2)c(=O)[nH]c1=O	> 100 µM	0.76 µM	2.3 µM	> 100 µM
